The test system of one data set is HIV-IIIb. In words: Test A: Antiviral Assay in MT4 Cells. The settings on record: Human immunodeficiency virus 1, IIIB, MT4, 120 h; for inhibition at 0.2 µM: read-out: % inhibition at 0.2 μM; for inhibition at 2 µM: read-out: % inhibition at 2 μM. The data set is classed as cell-based, HIV-1. On the procedure:
Test A: Antiviral Assay in MT4 Cells
MT-4 cells were next mixed with HIV-IIIb at an m.o.i of 0.003 for 1 hour, after which time 35 μL of virus/cell mixture (2000 cells) was immediately added to each well containing 40 μL of diluted compound. The plates were then incubated at 37° C. for 5 days. […] Cell lysis was carried out by incubating at room temperature for 10 min and then chemiluminescence was read.

Data set [1] can be described thus: Test B: Cytotoxicity Assay. The conditions noted are these: human, uninfected MT-4 cells, same protocol as Test A. In kind it is cell-based. A digest of the protocol: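 Uninfected MT-4 cells (2000 per well) incubated with diluted compound at 37° C. for 5 days, following the antiviral protocol without HIV-IIIb.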

Broadly, the inhibition is the drop in the measured response relative to a control, in per cent. In general, CC50 refers to the concentration at which the toxic effect on the cells reaches its halfway point. Read a low CC50 as harm at low concentration. Consider `Cn1cnc(S(=O)(=O)Nc2nn(C)c3c(-c4ccc(C#CC(C)(C)O)nc4[C@H](Cc4cc(F)cc(F)c4)NC(=O)Cn4nc(C(F)(F)F)c5c4C(F)(F)[C@@H]4C[C@H]54)cccc23)c1` [Compound 47, 2-((3bS,4aR)-5,5-difluoro-3-(trifluoromethyl)-3b,4,4a,5-tetrahydro-1H-cyclopropa[3,4]cyclopenta[1,2-c]pyrazol-1-yl)-N—((S)-2-(3,5-difluorophenyl)-1-(6-(3-hydroxy-3-methylbut-1-yn-1-yl)-3-(1-methyl-3-(1-methyl-1H-imidazole-4-sulfonamido)-1H-indazol-7-yl)pyridin-2-yl)ethyl)acetamide], for which, in the data set with HIV-IIIb, the inhibition at 0.2 µM was 100% and the inhibition at 2 µM stood at 100%. In data set [1], this molecule gave a CC50 at 5 days of 21.4 µM.
Consider `Cn1cnc(-c2ccc(-c3ccc(Cl)c4c(NS(C)(=O)=O)nn(C)c34)c([C@H](Cc3cc(F)cc(F)c3)NC(=O)Cn3nc(C(F)(F)F)c4c3C(F)(F)[C@@H]3C[C@H]43)n2)c1` [Compound 179, N—((S)-1-(3-(4-chloro-1-methyl-3-(methylsulfonamido)-1H-indazol-7-yl)-6-(1-methyl-1H-imidazol-4-yl)pyridin-2-yl)-2-(3,5-difluorophenyl)ethyl)-2-((3b-S,4aR)-5,5-difluoro-3-(trifluoromethyl)-3b,4,4a,5-tetrahydro-1H-cyclopropa[3,4]cyclopenta[1,2-c]pyrazol-1-yl)acetamide], for which, in the data set with HIV-IIIb, the inhibition at 0.2 µM is 100% and the inhibition at 2 µM stood at 100%. Further, the 50% cytotoxic concentration (CC50) at 5 days in data set [1] was 15.5 µM.
Consider `CC(C)(O)C#Cc1ccc(-c2cccc3c(N)noc23)c([C@H](Cc2cc(F)cc(F)c2)NC(=O)Cn2nc(C(F)(F)F)c3c2C(F)(F)[C@@H]2C[C@H]32)n1` [Compound 69, N—((S)-1-(3-(3-aminobenzo[d]isoxazol-7-yl)-6-(3-hydroxy-3-methylbut-1-yn-1-yl)pyridin-2-yl)-2-(3,5-difluorophenyl)ethyl)-2-((3b-S,4aR)-5,5-difluoro-3-(trifluoromethyl)-3b,4,4a,5-tetrahydro-1H-cyclopropa[3,4]cyclopenta[1,2-c]pyrazol-1-yl)acetamide], for which, in the data set on HIV-IIIb, the inhibition at 0.2 µM was 77% and the inhibition at 2 µM was determined as 77%. The molecule also returned a CC50 at 5 days in data set [1] of 0.718 µM.
On to `CNc1nnc2c(-c3ccc(C#CC(C)(C)O)nc3[C@H](Cc3cc(F)cc(F)c3)NC(=O)Cn3nc(C(F)F)c4c3C(F)(F)[C@@H]3C[C@H]43)cccn12` [Compound 76F, 2-((3bS,4aR)-3-(difluoromethyl)-5,5-difluoro-3b,4,4a,5-tetrahydro-1H-cyclopropa[3,4]cyclopenta[1,2-c]pyrazol-1-yl)-N—((S)-2-(3,5-difluorophenyl)-1-(6-(3-hydroxy-3-methylbut-1-yn-1-yl)-3-(3-(methylamino)-[1,2,4]triazolo[4,3-a]pyridin-8-yl)pyridin-2-yl)ethyl)acetamide], for which, in the data set with HIV-IIIb, the inhibition at 0.2 µM was determined as 98% and the inhibition at 2 µM was 98%. Moreover, the CC50 at 5 days in data set [1] is 22.6 µM.
Take `Cn1nc(NS(C)(=O)=O)c2c(Cl)ccc(-c3ccc(-c4cnc(C(C)(C)C)s4)nc3[C@H](Cc3cc(F)cc(F)c3)NC(=O)Cn3nc(C(F)(F)F)c4c3C(F)(F)[C@@H]3C[C@H]43)c21` [Compound 178, N—((S)-1-(6-(2-(tert-butyl)thiazol-5-yl)-3-(4-chloro-1-methyl-3-(methylsulfonamido)-1H-indazol-7-yl)pyridin-2-yl)-2-(3,5-difluorophenyl)ethyl)-2-((3b-S,4aR)-5,5-difluoro-3-(trifluoromethyl)-3b,4,4a,5-tetrahydro-1H-cyclopropa[3,4]cyclopenta[1,2-c]pyrazol-1-yl)acetamide]: in the data set on HIV-IIIb, the inhibition at 0.2 µM was 95% and the inhibition at 2 µM stood at 100%. The CC50 at 5 days in data set [1] turned out to be 14 µM.

Source of the values: US20140303164A1, “THERAPEUTIC COMPOUNDS” (Gilead Sciences, Inc., priority 2013, published 2014).
